Target: T1, HDAC6 enzyme (Homo sapiens, UniProt Q9UBN7)
T1 construct: transducing full length HDAC6 gene into Sf-9 insect cells; GST; purchased SignalChem; host or cells: Sf-9 insect cells
T1 sequence (Q9UBN7 1-1215): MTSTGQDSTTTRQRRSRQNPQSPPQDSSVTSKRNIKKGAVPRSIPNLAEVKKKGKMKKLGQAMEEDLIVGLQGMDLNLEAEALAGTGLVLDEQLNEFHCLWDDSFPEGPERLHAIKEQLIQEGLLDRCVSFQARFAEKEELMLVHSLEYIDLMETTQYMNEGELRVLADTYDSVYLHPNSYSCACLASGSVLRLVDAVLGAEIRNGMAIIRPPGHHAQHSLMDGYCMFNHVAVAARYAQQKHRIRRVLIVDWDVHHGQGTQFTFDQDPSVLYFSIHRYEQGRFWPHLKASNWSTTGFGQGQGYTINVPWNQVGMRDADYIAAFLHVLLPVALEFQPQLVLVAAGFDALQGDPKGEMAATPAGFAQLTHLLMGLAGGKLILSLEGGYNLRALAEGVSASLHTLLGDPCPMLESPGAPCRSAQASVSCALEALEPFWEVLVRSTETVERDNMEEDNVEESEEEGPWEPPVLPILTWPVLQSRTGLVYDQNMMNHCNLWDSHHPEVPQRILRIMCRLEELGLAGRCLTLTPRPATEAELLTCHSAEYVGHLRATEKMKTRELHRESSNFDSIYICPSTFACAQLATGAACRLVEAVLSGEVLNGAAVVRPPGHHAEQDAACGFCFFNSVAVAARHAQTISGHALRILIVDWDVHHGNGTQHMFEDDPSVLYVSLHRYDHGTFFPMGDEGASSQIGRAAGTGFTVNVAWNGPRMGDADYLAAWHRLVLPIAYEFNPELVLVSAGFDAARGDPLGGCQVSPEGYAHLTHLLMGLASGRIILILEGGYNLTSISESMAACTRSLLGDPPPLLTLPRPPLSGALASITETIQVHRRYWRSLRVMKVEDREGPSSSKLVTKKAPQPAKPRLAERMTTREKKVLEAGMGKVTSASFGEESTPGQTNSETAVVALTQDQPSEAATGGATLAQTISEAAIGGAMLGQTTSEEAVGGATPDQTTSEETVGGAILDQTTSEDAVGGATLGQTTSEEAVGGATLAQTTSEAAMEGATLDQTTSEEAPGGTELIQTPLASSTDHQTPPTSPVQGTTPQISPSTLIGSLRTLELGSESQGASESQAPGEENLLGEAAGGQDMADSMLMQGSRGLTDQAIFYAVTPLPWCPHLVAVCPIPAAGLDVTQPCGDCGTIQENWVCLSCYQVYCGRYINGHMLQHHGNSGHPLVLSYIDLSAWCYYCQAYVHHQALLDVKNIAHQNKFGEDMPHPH
Assay: HDAC6 enzyme inhibitory activity (HDAC-Glo I/II Assay kit)
Type: biochemical
Conditions: 10 μM; wells without enzyme = 100% inhibition
Experimental: HDAC6 enzyme prepared by transducing full length HDAC6 gene into Sf-9 insect cells and purifying by GST affinity column were purchased from SignalChem. Using this enzyme, HDAC6 enzyme inhibitory activities of the compound of the present invention were evaluated. Enzymes were used after preserved at −70° C. HDAC6 enzyme inhibitory activity of the compound of the present invention was measured using HDAC-Glo™ I/II Assay kit (Promega) according to the following experimental method. The test compound diluted with assay buffer (24 mM Tris-HCl (pH 7.5), 1 mM MgCl2, 0.35 mM KCl, 135 mM NaCl, 0.6 mM Glutathione, 0.01% Tween-20) was added to a 384-well plate by each 2 μL. Then, HDAC6 enzyme solution diluted with assay buffer was added thereto by each 4 μL, and the plate was incubated at room temperature for 60 min. After incubated, HDAC substrate-Developer solution prepared according to Promega protocol attached to the assay kit was added to the 384-well plate by each 2 μL, and the enzyme reaction was started. After reacting at room temperature for 20 min, luminescence level was measured using plate reader Envision (PerkinElmer). The inhibitory activity of each compound of Example was calculated as a relative activity value when luminescence level in wells without enzyme is considered as 100% inhibition.

Row | Compound | HDAC6 inhibitory rate (%) (10 μM)
1 | O=C(N[C@@H]1CCCC[C@H]1N1Cc2ccc(-c3nnc(C(F)F)o3)cc2C1=O)C1CC12CCC2 (stereo partly drawn) [Example 119, N-((1R,2R)-2-(6-(5-(difluoromethyl)-1,3,4-oxadiazol-2-yl)-1-oxo-1,3-dihydro-2H-isoindol-2-yl)cyclohexyl)spiro[2.3]hexane-1-carboxamide (optical isomer)] | 100
2 | O=C1c2cc(-c3nnc(C(F)F)o3)cnc2CN1[C@@H]1COCC[C@H]1Oc1ccc(F)cc1F [Example 656, 1,5-anhydro-2,4-dideoxy-2-(3-(5-(difluoromethyl)-1,3,4-oxadiazol-2-yl)-5-oxo-5,7-dihydro-6H-pyrrolo[3,4-b]pyridin-6-yl)-3-O-(2,4-difluorophenyl)-threo-pentitol (Optical Isomer)] | 100

Same assay, conditions: 10 μM; wells without enzyme = 100% inhibition; read-out: HDAC6 inhibitory rate (%) (10 μM)

Row | Compound | inhibition at 10 µM [%]
3 | O=C1c2cc(-c3nnc(C(F)F)o3)cc(F)c2CN1[C@@H]1CCOC[C@H]1NC(=O)C1(C(F)(F)F)CC1 [Example 201, N-((3S,4R)-4-(6-(5-(difluoromethyl)-1,3,4-oxadiazol-2-yl)-4-fluoro-1-oxo-1,3-dihydro-2H-isoindol-2-yl)tetrahydro-2H-pyran-3-yl)-1-(trifluoromethyl)cyclopropanecarboxamide] | 101
4 | O=C1c2cc(-c3nnc(C(F)F)o3)cnc2CN1Cc1ccc(OC(F)F)cc1 [Example 335] | 101
5 | O=C1c2cc(-c3nnc(C(F)F)o3)ccc2CN1c1ccccc1-c1cccc2c1CCO2 [Example 288, 6-(5-(difluoromethyl)-1,3,4-oxadiazol-2-yl)-2-(2-(2,3-dihydro-1-benzofuran-4-yl)phenyl)isoindolin-1-one] | 102
6 | N#Cc1ccc(N2Cc3ccc(-c4nnc(C(F)F)o4)cc3C2=O)c(-c2cccc(F)c2)c1 [Example 445, 6-(6-(5-(difluoro-methyl)-1,3,4-oxadiazol-2-yl)-1-oxo-1,3-dihydro-2H-isoindol-2-yl)-3′-fluoro-biphenyl-3-carbonitrile] | 100
7 | O=C1c2cc(-c3nnc(C(F)F)o3)ccc2CN1[C@@H]1CCCC[C@H]1NC(=O)C1(c2ccc(F)cc2)CC1 [Example 108, N-((1R,2R)-2-(6-(5-(difluoromethyl)-1,3,4-oxadiazol-2-yl)-1-oxo-1,3-dihydro-2H-isoindol-2-yl)cyclohexyl)-1-(4-fluorophenyl)cyclopropanecarboxamide] | 100
8 | O=C(N[C@@H]1CCCC[C@H]1N1Cc2ccc(-c3nnc(C(F)F)o3)cc2C1=O)C1COC1 [Example 91, N-((1R,2R)-2-(6-(5-(difluoromethyl)-1,3,4-oxadiazol-2-yl)-1-oxo-1,3-dihydro-2H-isoindol-2-yl)cyclohexyl)oxetane-3-carboxamide] | 100
9 | O=C1c2cc(-c3nnc(C(F)F)o3)ccc2CN1C[C@H]1COCCN1S(=O)(=O)C1CC1 [Example 44, 2-(((3S)-4-(cyclopropylsulfonyl)morpholin-3-yl)methyl)-6-(5-(difluoromethyl)-1,3,4-oxadiazol-2-yl)isoindolin-1-one] | 100
10 | O=C1c2cc(-c3nnc(C(F)F)o3)ccc2CN1c1ccccc1-c1cccc(OCC(F)(F)F)c1 [Example 315, 6-(5-(difluoromethyl)-1,3,4-oxadiazol-2-yl)-2-(3′-(2,2,2-trifluoroethoxy)biphenyl-2-yl)isoindolin-1-one] | 98
11 | O=C1c2cc(-c3nnc(C(F)F)o3)ccc2CN1c1ccccc1-c1ccc2c(c1)OCC2 [Example 304, 6-(5-(difluoromethyl)-1,3,4-oxadiazol-2-yl)-2-(2-(2,3-dihydro-1-benzofuran-6-yl)phenyl)isoindolin-1-one] | 99
12 | N#CC1(C(=O)N[C@@H]2CCCC[C@H]2N2Cc3ccc(-c4nnc(C(F)F)o4)cc3C2=O)CC1 [Example 17, 1-cyano-N-((1R,2R)-2-(6-(5-(difluoromethyl)-1,3,4-oxadiazol-2-yl)-1-oxo-1,3-dihydro-2H-isoindol-2-yl)cyclohexyl)cyclopropanecarboxamide] | 101
13 | O=C1c2cc(-c3nnc(C(F)F)o3)ccc2CN1Cc1ncc(F)cc1F [Example 147, 6-(5-(difluoromethyl)-1,3,4-oxadiazol-2-yl)-2-((3,5-difluoropyridin-2-yl)methyl)isoindolin-1-one] | 93
14 | Cn1cc(C2CCOCC2)c(N2Cc3ccc(-c4nnc(C(F)F)o4)cc3C2=O)n1 [Example 446, 6-(5-(difluoro-methyl)-1,3,4-oxadiazol-2-yl)-2-(1-methyl-4-(tetrahydro-2H-pyran-4-yl)-1H-pyrazol-3-yl) isoindolin-1-one] | 100
15 | C[C@@H](c1ccccc1)N1Cc2ncc(-c3nnc(C(F)F)o3)cc2C1=O [Example 475, 3-(5-(difluoro-methyl)-1,3,4-oxadiazol-2-yl)-6-((1S)-1-phenylethyl)-6,7-dihydro-5H-pyrrolo [3,4-b]pyridin-5-one] | 100
16 | CCOC(=O)N[C@@H]1CCCC[C@H]1N1Cc2ccc(-c3nnc(C(F)F)o3)cc2C1=O [Example 52, ethyl ((1R,2R)-2-(6-(5-(difluoromethyl)-1,3,4-oxadiazol-2-yl)-1-oxo-1,3-dihydro-2H-isoindol-2-yl)cyclohexyl)carbamate] | 96
17 | O=C(N[C@@H]1[C@H](N2Cc3ccc(-c4nnc(C(F)F)o4)cc3C2=O)CCCC1(F)F)OCc1ccccc1 [Example 619, benzyl ((1R,6R)-6-(6-(5-(difluoromethyl)-1,3,4-oxadiazol-2-yl)-1-oxo-1,3-dihydro-2H-isoindol-2-yl)-2,2-difluorocyclohexyl)carbamate] | 100
18 | CC(C)(C)OC(=O)N1CC[C@@H](N2Cc3ncc(-c4nnc(C(F)F)o4)cc3C2=O)[C@@H](c2ccccc2)C1 [Example 192, tert-butyl (3S,4R)-4-(3-(5-(difluoromethyl)-1,3,4-oxadiazol-2-yl)-5-oxo-5,7-dihydro-6H-pyrrolo[3,4-b]pyridin-6-yl)-3-phenylpiperidine-1-carboxylate] | 100
19 | O=C1c2cc(-c3nnc(C(F)F)o3)ccc2CN1C1(C(=O)NCC(F)(F)F)CC1 [Example 187, 1-(6-(5-(difluoromethyl)-1,3,4-oxadiazol-2-yl)-1-oxo-1,3-dihydro-2H-isoindol-2-yl)-N-(2,2,2-trifluoroethyl)cyclopropanecarboxamide] | 92
20 | O=C(N[C@@H]1CCCC[C@H]1N1Cc2ncc(-c3nnc(C(F)F)o3)cc2C1=O)C1CC1 [Example 463, N-((1R,2R)-2-(3-(5-(difluoro-methyl)-1,3,4-oxadiazol-2-yl)-5-oxo-5,7-dihydro-6H-pyrrolo[3,4-b]pyridin-6-yl)cyclohexyl) cyclopropane-carboxamide] | 101
21 | O=C(NC1CC(F)(F)CC[C@H]1N1Cc2ccc(-c3nnc(C(F)F)o3)cc2C1=O)OCc1ccccc1 (stereo in doubt) [Example 517, benzyl ((1S,2R)-2-(6-(5-(difluoromethyl)-1,3,4-oxadiazol-2-yl)-1-oxo-1,3-dihydro-2H-isoindol-2-yl)-5,5-difluorocyclohexyl) carbamate] | 100
22 | CCc1ncccc1-c1ccccc1N1Cc2ccc(-c3nnc(C(F)F)o3)cc2C1=O [Example 280, 6-(5-(difluoromethyl)-1,3,4-oxadiazol-2-yl)-2-(2-(2-ethylpyridin-3-yl)phenyl)-isoindolin-1-one] | 99

Source: patent US10435399B2, “HDAC6 inhibitory heterocyclic compound” (TAKEDA PHARMACEUTICAL COMPANY LIMITED, priority 2017, dated 2019)
